Laboratory results taken from ChEMBL document CHEMBL5046232, “Affinity-based protein profiling identifies vitamin D3 as a heat shock protein 70 antagonist that regulates hedgehog transduction in murine basal cell carcinoma” (Eur J Med Chem, 2022).
The source made the active and inactive calls. The calls are words filed in the database; no cut-off is given here.

Tests used:
[1] = Binding affinity to recombinant human HSP70 assessed as dissociation constant incubated for 1 hrs […]
[2] = target: T1, Vitamin D3 receptor (Mus musculus) (UniProt P48281); assay: Activation of VDR in mouse C3H 10T1/2 cells assessed as upregulation of Cyp24A1 mRNA expression at 5 uM measured after 48 hrs by RT-PCR analysis relative to control; format: cell-based
T1 sequence (whole entry): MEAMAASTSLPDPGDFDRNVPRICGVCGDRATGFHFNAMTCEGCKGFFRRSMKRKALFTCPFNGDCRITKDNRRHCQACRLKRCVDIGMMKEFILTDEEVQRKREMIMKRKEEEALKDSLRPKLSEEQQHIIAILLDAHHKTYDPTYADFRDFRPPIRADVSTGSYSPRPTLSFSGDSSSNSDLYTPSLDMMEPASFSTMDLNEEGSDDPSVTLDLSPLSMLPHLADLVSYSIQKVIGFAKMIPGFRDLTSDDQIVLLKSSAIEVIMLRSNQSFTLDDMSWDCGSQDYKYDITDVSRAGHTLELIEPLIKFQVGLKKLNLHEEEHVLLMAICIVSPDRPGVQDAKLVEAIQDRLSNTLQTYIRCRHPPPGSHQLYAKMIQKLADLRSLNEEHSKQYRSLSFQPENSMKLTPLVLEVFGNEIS

[3] = Inhibition of hedgehog signalling in mouse C3H 10T1/2 cells assessed as reduction in Gli1 mRNA expression measured after 48 hrs by RT-PCR analysis; format: cell-based; settings: C3H 10T1/2, 48 h
[4] = target: T1, Vitamin D3 receptor (Mus musculus); assay: Activation of VDR in mouse ASZ001 cells assessed as upregulation of Cyp24A1 mRNA expression at 5 uM measured after 48 hrs by RT-PCR analysis relative to control; format: cell-based
[5] = Inhibition of hedgehog signalling in mouse ASZ001 cells assessed as reduction in Gli1 mRNA expression measured after 48 hrs by RT-PCR analysis; format: cell-based; settings: ASZ001, 48 h
Homo sapiens [6] = species: Homo sapiens; assay: Competitive binding affinity to recombinant human HSP70 at 200 uM incubated for 1 hrs in presence of Vitamin D3 by Western blotting based pull-down assay
Homo sapiens [7] = species: Homo sapiens; assay: Binding affinity to recombinant human HSP70 at 200 uM incubated for 1 hrs in presence of calcidiol by Western blotting based pull-down assay
ASZ001 [8] = assay: Inhibition of hedgehog signalling in mouse ASZ001 cells assessed as reduction in Gli1 mRNA expression at 10 uM for 20 hrs by […]; format: cell-based
ASZ001 [9] = assay: Antiproliferative activity against mouse ASZ001 assessed as reduction in cell proliferation incubated for 72 hrs by MTS assay; format: functional, cell-based
Homo sapiens [10] = species: Homo sapiens; assay: Binding affinity to recombinant human HSP70 at 200 uM incubated for 1 hrs in presence of Calcitriol by Western blotting based pull-down assay; settings: filed as antagonist
C3H 10T1/2 = assay: Antiproliferative activity against mouse C3H 10T1/2 assessed as reduction in cell proliferation incubated for 72 hrs by MTS assay; format: functional, cell-based
Homo sapiens [11] = species: Homo sapiens; assay: Binding affinity to recombinant human HSP70 incubated for 1 hrs by Western blotting based pull-down assay; settings: filed as antagonist
ASZ001 [12] = assay: Inhibition of hedgehog signalling in mouse ASZ001 cells assessed as upregulation of Cyp27A1 expression by immunoblot analysis; format: cell-based
MEF [13] = assay: Inhibition of hedgehog signalling in mouse Sufu-KO MEF cells assessed as upregulation of VDR expression at >15 uM in by immunoblot analysis; format: cell-based; settings: dose microM >15
[14] = Inhibition of hedgehog signalling in mouse Sufu-KO MEF cells assessed as reduction in Gli1 mRNA expression measured after 48 hrs by RT-PCR analysis; format: cell-based
[15] = Inhibition of hedgehog signalling in mouse Ptch-KO MEF cells assessed as reduction in Gli1 mRNA expression measured after 48 hrs by RT-PCR analysis; format: cell-based
MEF [16] = assay: Inhibition of hedgehog signalling in mouse Sufu-KO MEF cells assessed as upregulation of Cyp27B1 expression by immunoblot analysis; format: cell-based
MEF [17] = assay: Inhibition of hedgehog signalling in mouse Sufu-KO MEF cells assessed as upregulation of Cyp27A1 expression by immunoblot analysis; format: cell-based
ASZ001 [18] = assay: Inhibition of hedgehog signalling in mouse ASZ001 cells assessed as downregulation of VDR expression in by immunoblot analysis; format: cell-based
Mus musculus = species: Mus musculus; assay: Selectivity index, ratio of IC50 for Inhibition of hedgehog signalling in mouse VDR-KO MEF cells to IC50 for inhibition of hedgehog signalling in mouse ASZ001 cells; format: cell-based
ASZ001 [19] = assay: Inhibition of hedgehog signalling in mouse ASZ001 cells assessed as upregulation of Cyp27B1 expression by immunoblot analysis; format: cell-based
[20] = Inhibition of hedgehog signalling in mouse VDR-KO MEF cells assessed as reduction in Gli1 mRNA expression measured after 48 hrs by RT-PCR analysis; format: cell-based
[21] = target: T1, Vitamin D3 receptor (Mus musculus); assay: Activation of VDR in mouse ASZ001 cells assessed as upregulation of Cyp24A1 mRNA expression at 2.5 uM measured after 48 hrs by RT-PCR analysis relative to control; format: cell-based; settings: filed as activator
[22] = target: T1, Vitamin D3 receptor (Mus musculus); assay: Activation of VDR in mouse C3H 10T1/2 cells assessed as upregulation of Cyp24A1 mRNA expression at 2.5 uM measured after 48 hrs by RT-PCR analysis relative to control; format: cell-based; settings: filed as activator
ASZ001 [23] = assay: Inhibition of hedgehog signalling in mouse ASZ001 cells assessed as upregulation of VDR expression in by immunoblot analysis; format: cell-based
MEF [24] = assay: Inhibition of hedgehog signalling in mouse Sufu-KO MEF cells assessed as upregulation of VDR expression at 10 uM in by immunoblot analysis; format: cell-based

Structure (SMILES)	Kd [1]	Activity ([2]; filed as activator)	IC50 [3]	Activity ([4]; filed as activator)	IC50 [5]	Activity [4]	also measured
C=C1CC[C@H](O)C/C1=C/C=C1\CCC[C@]2(C)[C@@H]([C@H](C)[C@@H](O)CCC(C)(C)O)CC[C@@H]12	> 50000 nM	540%	1200 nM	130%	1700 nM	–	–
C=C1CC[C@H](O)C/C1=C/C=C1\CCC[C@]2(C)[C@@H]([C@H](C)[C@@H](O)CCC(C)C)CC[C@@H]12	11500 nM	261%	1300 nM	105%	380 nM	–	–
C=C1CC[C@H](O)C/C1=C/C=C1\CCC[C@]2(C)[C@@H]([C@H](C)[C@@H](CCC(C)(C)O)OCc3cn(CCOCCOCCOCCNC(=O)CCCC[C@H]4SC[C@H]5NC(=O)N[C@H]54)nn3)CC[C@@H]12	–	–	1900 nM	–	1100 nM	< 1%	Activity (Homo sapiens [6]): inactive; Activity (Homo sapiens [7]): inactive; Activity (ASZ001 [8]): Active; Activity (ASZ001 [9]): Active; Activity (Homo sapiens [10]): Active; Activity [2]: < 1%; Activity (C3H 10T1/2): Active; Activity (Homo sapiens [11]): Dose-Dependent Effect
C=C1CC[C@H](O)C/C1=C/C=C1\CCC[C@]2(C)[C@@H]([C@H](C)[C@H](CCC(C)(C)O)OCc3cn(CCOCCOCCOCCNC(=O)CCCC[C@H]4SC[C@H]5NC(=O)N[C@H]54)nn3)CC[C@@H]12	–	–	7200 nM	–	3400 nM	< 1%	Activity (ASZ001 [9]): Active; Activity [2]: < 1%; Activity (C3H 10T1/2): Active
C=C1CC[C@H](O)C/C1=C/C=C1\CCC[C@]2(C)[C@@H]([C@H](C)[C@H](O)CCC(C)C)CC[C@@H]12	4300 nM	214%	1200 nM	103%	420 nM	–	–
C=C1CC[C@H](O)C/C1=C/C=C1\CCC[C@]2(C)[C@@H]([C@H](C)CCCC(C)C)CC[C@@H]12 [CHOLECALCIFEROL]	1400 nM	100%	4100 nM	100%	2100 nM	–	Activity (ASZ001 [12]): inactive; inhibition (MEF [13]): Active; IC50 ([14]; Mus musculus, MEF, 48 h, read-out: IC50): 13600 nM; IC50 [15]: 5800 nM; Activity (MEF [16]): Dose-Dependent Effect; Activity (MEF [17]): Dose-Dependent Effect; Activity (ASZ001 [18]): inactive; Ratio IC50 (Mus musculus): 2; Activity (ASZ001 [19]): inactive
CCn1c(=O)/c(=C2\Sc3ccccc3N2C)s/c1=C\c1cccc[n+]1CC.[Cl-]	–	–	5600 nM	–	1800 nM	–	IC50 ([14]; mef): Not Active; IC50 [15]: 9500 nM
C#CCO[C@@H](CCC(C)C)[C@@H](C)[C@H]1CC[C@H]2/C(=C/C=C3/C[C@@H](O)CCC3=C)CCC[C@]12C	–	–	2600 nM	–	260 nM	< 1%	Activity [2]: < 1%
C=C1CC[C@H](O)C/C1=C/C=C1\CCC[C@]2(C)[C@@H]([C@H](C)CCCC(C)(C)O)CC[C@@H]12 [CALCIFEDIOL ANHYDROUS]	6500 nM	–	480 nM	–	400 nM	–	IC50 [20]: 4400 nM; Ratio IC50 (Mus musculus): 11; Activity [21]: > 500%; Activity [22]: > 500%
C#CCO[C@H](CCC(C)C)[C@@H](C)[C@H]1CC[C@H]2/C(=C/C=C3/C[C@@H](O)CCC3=C)CCC[C@]12C	–	–	1100 nM	–	430 nM	9%	Activity [2]: < 1%
C#CCO[C@H](CCC(C)(C)O)[C@@H](C)[C@H]1CC[C@H]2/C(=C/C=C3/C[C@@H](O)CCC3=C)CCC[C@]12C	–	–	–	–	13800 nM	< 1%	–
C=C1CC[C@H](O)C/C1=C/C=C1\CCC[C@]2(C)[C@@H]([C@H](C)[C@H](O)CCC(C)(C)O)CC[C@@H]12	40300 nM	527%	790 nM	122%	710 nM	–	–
COc1ccc(-c2nc(-c3cc(C(F)(F)F)cc(C(F)(F)F)c3)n(Cc3ccc(C(N)=O)cc3)c2-c2ccc(OC)cc2)cc1	840 nM	–	970 nM	–	580 nM	–	IC50 ([14]; mef): Not Active; IC50 [15]: 1700 nM
C=C1/C(=C\C=C2/CCC[C@]3(C)[C@@H]([C@H](C)CCCC(C)(C)O)CC[C@@H]23)C[C@@H](O)C[C@@H]1O	–	–	–	–	–	–	Activity (ASZ001 [23]): Active; Activity (MEF [24]): Active
